From patent US20230293591A1, “Therapeutic Substances, their Preparation and Diagnostic Procedure” (KING'S COLLEGE LONDON, priority 2017, published 2023)
Where a SMILES comes first, the peptide text is derived from it. The star is where a group is joined. Cbz = O=C(OCc1ccccc1)*; CH2F = FC*

What was measured:
PGE2 = PGE2 ELISA in supernatant of MSC co-cultured with IBD patients' PBMC; format: cell-based, human; conditions: MSC (5×10^4) and patients PBMC (1×10^6), 24 hours, inhibitor 50 μM
Method: In particular MSC (5×10^4) and patients PBMC (1×10^6) were co-cultured for 24 hours, either with or without addition of a pan-caspase inhibibtor, Z-VAD-FMK (50 μM).
Supernatant was collected and PGE2 levels were measured by ELISA.

caspase 3 = experiment: Caspase 3 activation in MSC cultured with activated PBMC (FRET-MSC); format: cell-based, human
Method: Luc-MSC were transfected with the pGL3-Control vector containing the SV40 promoter for the expression of Luc+ (Promega, Southampton, UK) or with pECFPDEVDR-Venus (Addgene, Teddington, UK) using electroporation (Gene Pulser Xcell, BioRad, Kidlington, UK). Cells were suspended in a total volume of 250 μl of buffer and electroporated in 0.4 cm gap cuvettes using 10 μg of DNA at 250 volts and […]. When pECFP-DEVDR-Venus was used, the donor fluorophore pECFP and the acceptor Venus-YFP were linked through the flexible linker DEVDR which is recognized and cleaved by the active form of caspase 3. In this system caspase 3 activity can be monitored through the analysis of the Förster Resonance Energy Transfer (FRET) between pECFP and Venus-YFP. […]
The following antibodies specific for murine molecules were used: anti-CD45 (FITC, Clone 30-F11) (eBiosciences Ltd, Hatfield, UK), anti-Vβ8.3 (FITC, Clone 1B3.3), antiCD8 (APC, Clone 53-6.7), antiCD4 (PE, Clone H129.19), anti-CD19 (APC-H7, Clone 1D3), anti-NK1.1 (PerCP-Cy5.5, Clone PK136) (BD Biosciences, Oxford, UK), anti-CD11b (PerCP-Cy5.5, clone M1/70), anti-CD11c (APC-Cy7, clone n418), anti-Ido1 (Alexa Fluo647, clone 2e2) (BioLegend, London, UK). […] All samples were acquired using BD FACS Canto II using the software FACS Diva and analyzed with Flow-jo software. […]

[1] = tested on: GvHD effector cells (CD8+Vβ8.3+); experiment: Mouse GvHD model: infiltration of GvHD effector cells in spleen and lungs by flow-cytometry; format: in vivo; conditions: GvHD mice, IDO inhibitor 2 mg/ml in drinking water from 6 days prior to MSC injection
Text: Acute GvHD was induced as previously described (T. Toubai et al. Blood, 119, 3844-3853 (2012)). Briefly, after lethal irradiation (11 Gy), recipient C57BL/6 male mice were transplanted with 1×10^6 purified CD8+ cells transgenic for a T-cell receptor specific for the male HY-antigen Uty (Matahari, Mh) from female Mh mice as GvHD effectors (FIG. 9A), 5×10^6 unfractionated bone marrow (BM) and 2×10^6 purified polyclonal CD4+ cells from female syngeneic donors (C57BL/6 wild-type donors). The control group received BM and purified CD4+ cells only. CD4+ and CD8+ T cells were obtained by positive selection using magnetic beads (Miltenyi Biotec Ltd, Bisley, UK). Live MSC (1×10^6) were injected i.v. at day +3, whilst apoMSC (1×10^6) were administered i.v. or i.p. at day +1, +3 and +6 from the transplant. Unless otherwise specified, animals were euthanized for analysis at day +7. The infiltration of GvHD effector cells was assessed by flow-cytometry and the percentage was expressed as proportion of cells in the lymphocyte gate, based on the physical characteristics of the cells.
In this model, the expansion of the T cells effecting GvHD (CD8+Vβ8.3+) can be precisely enumerated.

COC(=O)C[C@H](NC(=O)[C@H](C)NC(=O)[C@@H](NC(=O)OCc1ccccc1)C(C)C)C(=O)CF [Z-VAD-FMK] (Cbz-Val-Ala-Asp(OMe)-CH2F)
PGE2 levels in supernatant (PGE2): largely reduce | caspase activation in MSC induced by activated PBMC in presence of inhibitor (caspase 3): completely abrogated

Cn1cc(C[C@@H](N)C(=O)O)c2ccccc21 [1-DMT, 1-methyl-D-tryptophan]
beneficial effect of MSC on Mh T cell infiltration [1]: much reduced
